Test results: publication PMC10541198, “Specific quinone reductase 2 inhibitors reduce metabolic burden and reverse Alzheimer’s disease phenotype in mice” (The Journal of Clinical Investigation, 2023)
Where “and” joins values, the source holds several entries; their conditions need not be identical. Equal values may be shown once.

How the values were obtained:
Format in all cases: in vivo, mouse
5xFAD mice = assay: Nesting in 5xFAD mice; set-up: key to Sup. Fig. 5-2J, nesting: nesting score on a scale of 1 to 5
Experimental: Each home cage was given six identical portions of cotton wool tubes and 24 h later the nest made was photographed from above. The images were gi ven the names of the respective cages, whi ch were coded […]
(see ‘Blinding Measures for Animal Experiments’ section), and were analyzed by an experimenter that was blind to the conditions, groups and cage codes. […]
Analysis of the images was done blind, by an experimenter unaware of the experimental conditions or details, using Imaris (Bitplane) software. Surface reconstruction module was used to extract the data as volumes and / or si gnal intensities of the used markers (4-HNE, phospho- t au, amyloid β and Iba 1) .

eIF2α = assay: Immunoblot of total and phosphorylated eIF2α 3 hours after CA1 microinjection
Experimental: In order to evaluate the efficacy of some of the leading QR2is in vivo, we carried out double-blind experiments using 2 different modalities (Supplemental Methods), measuring memory that is dependent on different brain areas. First, cortical memory was tested using incidental novel taste learning (see Methods), in which an unfamiliar, but palatable and safe, taste is given for the first time, and the memory for this newly learned taste is then assessed 2 days later. This is done by measuring the volume of the taste consumed upon subsequent exposure to it ([32]) (Figure 4A). […] Next, hippocampal-dependent learning was evaluated using delay fear conditioning (DFC; see Methods) ([33]). Mice were cannulated to the CA1 region of the hippocampus and were microinjected with YB-537 (1 μL of 5 μM, Figure 4, D and H) or vehicle. […] In order to evaluate any possible effect of acute QR2i microinjection on metabolic stress in the mouse brain, ISR activation was measured by quantifying total and phosphorylated eukaryotic initiation factor 2 α (eIF2α) levels (Supplemental Figure 3A) and lipid peroxidation product, 4-hydroxynonenal (4-HNE; Supplemental Figure 3B), by immunoblot 3 hours after the injection. […]

[1] = Drinking rate during chronic ingestion; set-up: Sup. Fig. 5-2B, drinking rate: unit: ml/g/day
Experimental: Supplementary Figure 6. Chronic Drinking of 50 mg/kg YB -537 for of 1 Month Causes no Changes
in General Mouse Physiology or Behavior but Improves Nesting Behavior Over Time.
(A) Weight of male and female, 8–9- month-old 5xFAD mice over the course of 25 days while consuming
(B) Drinking rate of water or YB-537 in the cages of the 5xFAD mice. […]

Cc1ccc(-c2cn3cccc(C)c3n2)cc1S(=O)(=O)N1CCNCC1 [YB-537]
Nest quality (5xFAD mice; 5xFAD 1 month, regardless of sex (Pearson r)): significantly correlated to time under treatment | Sup. Fig. 5-2J, nesting (5xFAD mice; Females, Day 0): 2 and 3 | Sup. Fig. 5-2J, nesting (5xFAD mice; Females, Day 7): 3 and 4 | Sup. Fig. 5-2J, nesting (5xFAD mice; Females, Day 14): 4 | Sup. Fig. 5-2J, nesting (5xFAD mice; Females, Day 21): 5 and 4 | Sup. Fig. 5-2J, nesting (5xFAD mice; Males + Females, Day 0): 3 and 2 | Sup. Fig. 5-2J, nesting (5xFAD mice; Males + Females, Day 7): 4 and 3 | Sup. Fig. 5-2J, nesting (5xFAD mice; Males + Females, Day 14): 4 and 3 | Sup. Fig. 5-2J, nesting (5xFAD mice; Males + Females, Day 21): 5 and 4 | Sup. Fig. 5-2J, nesting (5xFAD mice; Males, Day 0): 2 and 3 | Sup. Fig. 5-2J, nesting (5xFAD mice; Males, Day 7): 3 and 4 | Sup. Fig. 5-2J, nesting (5xFAD mice; Males, Day 14): 4 and 3 | Sup. Fig. 5-2J, nesting (5xFAD mice; Males, Day 21): 4 and 5 | eIF2α phosphorylation levels (eIF2α; 3 hours after microinjection in the mouse hippocampus): insignificant reduction | eIF2α phosphorylation, immunoblot (individual mice) (eIF2α; 3 hours after microinjection, Sup. Fig. 3A): 1.423 and 1.158 and 1.034 and 0.527 and 1.086 and 1.215 and 0.836 | average drinking rate ([1]; 5xFAD females): 0.170 ± 0.011 mL/g/day | average drinking rate ([1]; 5xFAD males): 0.170 ± 0.035 mL/g/day | Sup. Fig. 5-2B, drinking rate ([1]; Female): 0.159 and 0.182 | Sup. Fig. 5-2B, drinking rate ([1]; Male): 0.207 and 0.135
